Source: US20110237629A1, “AMINO ACID ESTER PRODRUGS AND THE USE THEREOF” (Bayer Schering Pharma Aktiengesellschaft, priority 2008, published 2011)
Counter-ions that a name gives are not always drawn.

Tests used:
[1] = Determination of the solubility (suspension shaken 24 h at room temperature, HPLC of supernatant); assay type: physicochemical; details: thermodynamic from solid
Procedure: The test substance is suspended in water or dilute hydrochloric acid (pH 4) or in 5% strength aqueous dextrose solution. This suspension is shaken at room temperature for 24 h. After ultracentrifugation at 224 000 g for 30 min, the supernatant is diluted with DMSO and analysed by HPLC. A two-point calibration plot of the test compound in DMSO is used for quantification.
Agilent 1100 with DAD (G1315A), quat. Pump (G1311A), autosampler CTC HTS PAL, degasser (G1322A) and column thermostat (G1316A); column: Phenomenex Gemini C18, 5 μm, 50 mm×2 mm; temperature: 40° C.; eluent A: water/phosphoric acid pH 2, eluent B: acetonitrile; flow rate: 0.7 ml/min; gradient: 0-0.5 min 85% A, 15% B; ramp 0.5-3 min 10% A, 90% B; 3-3.5 min 10% A, 90% B; ramp 3.5-4 min 85% A, 15% B; 4-5 min 85% A, 15% B.
Agilent 1100 with DAD (G1315A), quat. pump (G1311A), autosampler CTC HTS PAL, degasser (G1322A) and column thermostat (G1316A); column: VDSoptilab Kromasil 100 C18, 3.5 μm, 60 mm×2.1 mm; temperature: 30° C.; eluent A: water+5 ml of perchloric acid/liter, eluent B: acetonitrile; flow rate: 0.75 ml/min; gradient: 0-0.5 min 98% A, 2% B; ramp 0.5-4.5 min 10% A, 90% B; 4.5-6 min 10% A, 90% B; ramp 6.5-6.7 min 98% A, 2% B; 6.7-7.5 min 98% A, 2% B.
The solubilities of representative exemplary embodiments in dilute hydrochloric acid (pH 4) are shown in Table1: […]

[2] = Stability in buffer at various pH values; assay type: physicochemical
Procedure: 0.3 mg of the test substance is weighed into a 2 ml HPLC vial and 0.5 ml of acetonitrile or acetonitrile/DMSO (9:1) is added. The substance is dissolved by putting the sample vessel in an ultrasonic bath for about 10 seconds. Then 0.5 ml of the respective buffer solution is added, and the sample is again treated in the ultrasonic bath.
(Buffer) solutions employed:
pH 4: 1 liter of Millipore water is adjusted to pH 4.0 with 1 N hydrochloric acid;
pH 5: 0.096 mol of citric acid and 0.2 mol of sodium hydroxide ad 1 liter of water;
pH 7.4: 90.0 g of sodium chloride, 13.61 g of potassium dihydrogen phosphate and 83.35 g of 1 N sodium hydroxide solution are made up to 1 liter with water; this solution is then further diluted 1:10 with Millipore water.
pH 8: 0.013 mol of borax and 0.021 mol of hydrochloric acid ad 1 liter of water.
5 μl portions of the test solution are analyzed by HPLC for their content of unchanged test substance, and of basic mother substance of the formula (A) formed, every hour over a period of 24 hours at 37° C. The percentage areas of the appropriate peaks are used for quantification.
HPLC method for example 1:
(§1) Agilent 1100 with DAD (G1315B), binary pump (G1312A), autosampler (G1329A), column oven (G1316A), thermostat (G1330B); column: Kromasil 100 C18, 125 mm×4 mm, 5 μm; column temperature: 30° C.; eluent A: water+5 ml perchloric acid/liter, eluent B: acetonitrile; gradient: 0 min 90% A→2.0 min 70% A→18.0 min 70% A 20.0 min 10% A→21.0 min 10% A→23.0 min 90% A→26.0 min 90% A; flow rate: 2.0 ml/min;
HPLC method for example 3:
as §1, with “(G1314A),” for “(G1315B),”, “(G1330A);” for “(G1330B);”, “64%” for “70%”, “64% A→20.0” for “70% A 20.0”, “ml/min UV detection: 294 nm.” for “ml/min;”
HPLC method for example 11:
as §1, with “ml of” for “ml”, “64%” for “70%”, “64% A→20.0” for “70% A 20.0”, “ml/min; UV detection: 294 nm.” for “ml/min;”
HPLC method for example 14:
Agilent 1100 with DAD (G1315B), binary pump (G1312A), autosampler (G1329A), column oven (G1316A), thermostat (G1330B); column: Kromasil 100 C18, 250 mm×4 mm, 5 μm; column temperature: 30° C.; eluent A: water+5 ml of perchloric acid/liter, eluent B: acetonitrile; gradient: 0 min 90% A→7.0 min 52% A→18.0 min 52% A→20.0 min 10% A→21.0 min 10% A→23.0 min 90% A -4 26.0 min 90% A; flow rate: 2.0 ml/min; UV detection: 288 nm.
HPLC method for example 18:
Agilent 1100 with DAD (G1315A), binary pump (G1312A), autosampler (G1329A), column oven (G1316A), thermostat (G1330A); column: Kromasil 100 C18, 125 mm×4 mm, 5 μm; column temperature: 30° C.; eluent A: water+5 ml of perchloric acid/liter, eluent B: acetonitrile; gradient: 0 min 90% A→6.0 min 61% A→18.0 min 61% A→20.0 min 10% A→21.0 min 10% A→23.0 min 90% A→26.0 min 90% A; flow rate: 2.0 ml/min; UV detection: 294 nm.
The ratios of the peak areas (F) at the respective time points in relation to the peak areas at the starting time are shown in Table 3 for representative exemplary embodiments: […]

[3] = i.v. pharmacokinetics in Wistar rats; assay type: in vivo; details: male Wistar rats, i.v. bolus, first measurement point
Procedure: On the day before administration of the substance, a catheter for obtaining blood is implanted in the jugular vein of the experimental animals (male Wistar rats, body weight 200-250 g) under Isofluran® anesthesia. On the day of the experiment, a defined dose of the test substance is administered as solution into the tail vein using a Hamilton® glass syringe (bolus administration, duration of administration <10 s). Blood samples (8-12 time points) are taken through the catheter sequentially over the course of 24 h after administration of the substance. Plasma is obtained by centrifuging the samples in heparinized tubes. Acetonitrile is added to a defined plasma volume per time point to precipitate proteins. After centrifugation, test substance and, where appropriate, known cleavage products of the test substance in the supernatant are determined quantitatively using a suitable LC/MS-MS method. […] Only the active ingredient (example 8A) was detectable up to the 8-hour time point too.

C[C@H](N)C(=O)OC[C@H](COc1ccc(-c2c(C#N)c(N)nc(SCc3coc(-c4ccc(Cl)cc4)n3)c2C#N)cc1)OC(=O)[C@H](C)N [Example 1, (2S)-3-{4-[2-Amino-6-({[2-(4-chlorophenyl)-1,3-oxazol-4-yl]methyl}sulfanyl)-3,5-dicyanopyridin-4-yl]phenoxy}propane-1,2-diyl(2S,2′S)-bis(2-aminopropanoate)dihydrochloride]
solubility at 24 h ([1]; aqueous buffer, dilute hydrochloric acid (pH 4)): > 500 µg/mL | solubility at 24 h ([1]; saline or isotonic, 5% strength aqueous dextrose solution): > 500 µg/mL | % test substance after 4 h [F(t = 4 h) × 100/F(t = 0 h)] ([2]; pH 4, 37° C.): 99% | % test substance after 24 h [F(t = 24 h) × 100/F(t = 0 h)] ([2]; pH 4, 37° C.): 98% | % test substance after 4 h [F(t = 4 h) × 100/F(t = 0 h)] ([2]; pH 7.4, 37° C.): 90% | % test substance after 24 h [F(t = 24 h) × 100/F(t = 0 h)] ([2]; pH 7.4, 37° C.): 53% | detectability of the test substance (prodrug) in plasma after i.v. administration [3]: no longer detectable
